In PMC6443668, “Chiral phenoxyacetic acid analogues inhibit colon cancer cell proliferation acting as PPARγ partial agonists” (Scientific Reports, 2019):
Values joined by “and” are separate entries in the source; they are usually repeats but may differ in a detail not shown here. Equal entries are not always repeated. Where two headings read alike, the source gives them in different places.

Assays:
[1] = target: T1, PPARγ1 (Homo sapiens, UniProt P37231); assay: PPRE-Luciferase reporter transactivation in HEK293 cells expressing PPARγ1; assay type: cell-based; conditions: for Efficacy: PPARγ transactivation with respect to the full agonist RGZ taken as 100%; for EC50: PPARγ transactivation, PPRE-Luc reporter, HEK293 expressing PPARγ1, 24 hs treatment
T1 construct: a fixed and higher amount of an exogenous, full length PPARγ1; expressed in transfected cells
T1 sequence (P37231 1-477 isoform P37231-2): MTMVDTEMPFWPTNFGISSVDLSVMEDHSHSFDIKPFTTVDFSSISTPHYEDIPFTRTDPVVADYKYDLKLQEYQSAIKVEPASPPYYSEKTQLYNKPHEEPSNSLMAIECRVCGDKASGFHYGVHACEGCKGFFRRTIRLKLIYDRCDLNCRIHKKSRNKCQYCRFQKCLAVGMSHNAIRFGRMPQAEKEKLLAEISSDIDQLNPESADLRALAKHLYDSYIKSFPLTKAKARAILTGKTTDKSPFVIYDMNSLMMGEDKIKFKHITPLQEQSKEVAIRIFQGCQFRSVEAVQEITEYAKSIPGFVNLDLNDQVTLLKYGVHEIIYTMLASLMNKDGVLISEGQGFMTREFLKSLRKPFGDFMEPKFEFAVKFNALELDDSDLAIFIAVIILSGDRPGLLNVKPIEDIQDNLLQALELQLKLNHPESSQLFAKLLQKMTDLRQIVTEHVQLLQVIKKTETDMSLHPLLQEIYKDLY
Description: These cells were selected as a model system because they express low levels of the endogenous PPAR subtypes and a fixed and higher amount of an exogenous, full length PPARγ1; the differences in luciferase activity can, thus, be referred to PPARγ1 and to the different ligands used. Twenty-four hours after transfection, cells were treated for additional 24 hs with increasing doses of each compound (Table 2).
HEK293 cells that stably express an exogenous Flag-tagged PPARγ1 from a transfected PCDNA-3 vector carrying a complete PPARγ cDNA were used for transfection experiments. PPRE-Luc plasmid contains a luciferase reporter gene whose transcription is driven by the herpes simplex thymidine kinase (TK) promoter including three copies of the PPRE designed on the sequence of Acyl-CoA oxidase gene. […] The day before transfection, HEK293 stably expressing FLAG-PPARγ1 were plated in 12-well plates to reach 70% confluence. After 24 hs, growth medium was removed and substitute with OPTI-MEM, in absence of serum and antibiotics, and cells were transfected with the luciferase reporter gene (PPRE-Luc) using lipofectamine 2000 reagent as described. […] Transfection assays were performed in triplicate and the resulting transcriptional activities measured by luciferase assay. The values were normalized by β-galactosidase assay and the average value for each triplicate was calculated.

[2] = test system: HT-29 cells; assay: Viability / proliferation assay in HT-29 cells (cell counting); conditions: for Residual viability: remaining surviving cells
From the text: We then evaluated the antiproliferative potential of the compounds by carrying out viability assays in HT-29, a CRC-derived cell line selected as it expresses substantial amounts of PPARγ1 with respect to the α and β/δ subtypes.
After treatment, the cells were washed with PBS, trypsinized and collected in culture medium. Cells were counted by means of a Burker’s hemocytometer and by automated cell counter (Roche Applied, Penzberg, Germany)[60].
Proliferation assay carried out on HT-29 cells treated or not with the indicated compounds at different concentrations ranging from 1 to 10 µM for 48 hs. HT-29 cells exposed or not to these compounds were harvested, washed with PBS, trypsinized and collected in culture medium. Cell counting was performed by means of a Burker’s hemocytometer. Three counts for each well were made and the mean value and the standard deviation were calculated.

[3] = test system: cyclin D1; assay: Western blotting of cyclin D1 in HT-29 cells; assay type: cell-based, human; conditions: 10 µM, 48 hs
Description: (§1) To better characterize the growth inhibition elicited by (R,S)-3, (S)-3 and (R,S)-7, we examined changes in the expression of proteins involved in cell cycle control (Figs 1B and 2A). […] The results paralleled those of the corresponding proteins and all together correlated with the flow cytometric data obtained in the same experimental conditions as reported in Fig. 1.
Proliferating HT-29 cells were treated for 48 hs with 10 µM of the indicated compounds. Specific antibodies against cyclin D1 (A), c-Myc (B), β-catenin (C) and PPARγ (D) respectively, were used in Western blotting analysis. An anti-β-actin antibody was used as a control for protein loading. The graphs of (A) and (B) represent the means ± SD of three independent experiments. **p ≤ 0.01, ***p ≤ 0.005 compared to the control. The bar graphs of (C,D) are the means ± SD of three independent experiments. *p ≤ 0.05 compared to the control. […] Luciferase activity is reported as fold induction after normalization to β-galactosidase activity used as control of transfection efficiency. […]
(§2) Total extracts from treated and untreated cells were obtained by lysis in Ripa buffer (150 mM NaCl, 50 mM Tris-HCl, pH 7.6, 10 mM EDTA, 1% NP-40) containing also a protease inhibitors cocktail and then centrifugated at 17,000 RCF for 10 min, at 4 °C. Total proteins in the supernatant were quantified and 80 μg of each sample were loaded on SDS-PAGE. […]

[4] = test system: HT-29 cells; assay: Annexin V-FITC / propidium iodide apoptosis flow cytometry in HT-29 cells; assay type: cell-based, human; conditions: 10 µM, 48 hs
Description: (§3) (B) Early (Ann+/PI−) and late (Ann+/PI+) apoptotic cell populations were evaluated and reported in the graphic representation. The bar graphs are the means ± SD of three independent experiments. *p ≤ 0.05, **p ≤ 0.01, ***p ≤ 0.005 compared to the control. […] An anti-β-actin antibody was used as a control for protein loading. Significance is indicated as *p ≤ 0.05 compared to only vehicle. […] It is listed because a value is printed with its label.
(§4) HT-29 cells were plated at similar confluency and synchronized by a 48 h serum deprivation in 0.1% FBS. […] At same time, another aliquot of cells was allowed to grow again in the complete medium containing 0,1% DMSO for the same times and was used as control. After treatment, DNA cell content was evaluated by FACS analysis as previously described. Evaluation of apoptotic cells was performed by staining cell treated or not with 10 μM of the indicated compounds for 48 hs with Annexin5-V-Fitc and propidium iodide. All flow cytometry results were analyzed by FACSuite Software.

[5] = test system: p21^waf1/cip1; assay: Western blotting of p21waf1/cip1 in HT-29 cells; assay type: cell-based, human; conditions: 10 µM, 48 hs
Description: (§5) Data are means ± SD of two independent experiments. *p ≤ 0.05, **p ≤ 0.01 compared to the control. (B) Proliferating HT-29 cells were treated or not for 48 hs with 10 µM of the indicated compounds. Protein extracts were prepared and assessed for p21^waf1/cip1 expression in Western blotting analysis. β-Actin was used for protein load normalization. The bar graphs are the mean ± SD of three independent experiments. **p ≤ 0.01 compared to the control.
as §1
(§6) Total extracts from treated and untreated cells were obtained by lysis in Ripa buffer (150 mM NaCl, 50 mM Tris-HCl, pH 7.6, 10 mM EDTA, 1% NP-40) containing also a protease inhibitors cocktail and then centrifugated at 17,000 RCF for 10 min, at 4 °C. Total proteins in the supernatant were quantified and 80 μg of each sample were loaded on SDS-PAGE. Western blotting assays were carried out as previously reported.

[6] = test system: p21^waf1/cip1; assay: Western blotting of p21waf1/cip1 in parental RKO cells (no endogenous PPARG); assay type: cell-based, human; conditions: 10 µM, 48 hs
From the text: (§7) RKO cells were taken as control for assessing possible effects due to other PPAR receptors expressed at low levels in this cell or to PPARγ-independent effects elicited by GW9662, as reported.
(§8) Figure 4 PPARγ-dependent antiproliferative effect in CRC-derived RKO cells. Western blotting analysis of p21^waf1/cip1 expression in total protein extracts from CRC-derived RKO cells (A) and its derived clone overexpressing an ectopic PPARγ1 (B) using an anti-p21^waf1/cip1 antibody. An anti-β-actin antibody was used as a control for protein loading. The bar graphs represent the mean ± SD of […] of at least 3 independent experiments. *p ≤ 0.05, **p ≤ 0.01 compared to the control.
as §6

[7] = test system: β-catenin/TCF pathway; assay: Top-FLASH reporter luciferase assay in LiCl-induced HEK-293 cells; assay type: cell-based; conditions: HEK-293, Top-FLASH, 20 mM LiCl plus 1 µM compound, 24 hs, relative to LiCl alone
Description: (§9) Proliferating HT-29 cells were treated for 48 hs with 10 µM of the indicated compounds. Specific antibodies against cyclin D1 (A), c-Myc (B), β-catenin (C) and PPARγ (D) respectively, were used in Western blotting analysis. An anti-β-actin antibody was used as a control for protein loading. The graphs of (A) and (B) represent the means ± SD of three independent experiments. **p ≤ 0.01, ***p ≤ 0.005 compared to the control. The bar graphs of (C,D) are the means ± SD of three independent experiments. *p ≤ 0.05 compared to the control. […] Luciferase activity is reported as fold induction after normalization to β-galactosidase activity used as control of transfection efficiency. The graph represents the mean ± SD of two independent experiments performed in triplicate. *p ≤ 0.05 compared to LiCl exposure.
To definitely confirm that (R,S)-3 and (S)-3 negatively affect c-Myc and cyclin D1 protein levels through down-regulation of their own gene transcription, we performed the TOP-flash reporter luciferase assay in LiCl-induced HEK-293 cells. […]
The Top-FLASH reporter plasmid containing three copies of TCF binding sites was transiently transfected into HEK293 cells with Lipofectamine 2000 (Invitrogen, Carlsbad, CA, USA) in 24-well plates. […] Luciferase activity was measured after 24 h of compounds treatment and normalized to β-galactosidase. […]

[8] = test system: HT-29 cells; assay: Cell cycle analysis by flow cytometry (propidium iodide) in HT-29 cells; assay type: cell-based, human; conditions: 1 to 25 µM, 48 hs, FACS
Description: We then investigated the cell cycle changes underlying the growth inhibition caused by (R,S)-3, (S)-3 and (R,S)-7 treatment. To this goal, HT-29 cells were cultured in proliferating medium for 24 hs and exposed for additional 48 hs to a medium containing different concentrations of the three compounds.
as §5, §4

[9] = test system: p21^waf1/cip1; assay: Western blotting of p21waf1/cip1 in RKO cells stably transfected with PPARG1; assay type: cell-based, human
From the text: as §7, §8, §6

[10] = test system: β-catenin; assay: Western blotting of β-catenin in HT-29 cells; assay type: cell-based, human; conditions: 10 µM, 48 hs
Description: as §9
(§10) Indeed, cyclin D1 and c-Myc are target genes[38],[39] and, for these reasons, we evaluated c-Myc levels in untreated and treated HT-29 cells. […] Along this reasoning, we investigated β-catenin levels in the same experimental conditions. […]
as §2

[11] = test system: caspase 3; assay: Western blotting of caspase 3 in HT-29 cells; assay type: cell-based, human; conditions: 10 µM, 48 hs
Description: as §3, §6

[12] = test system: c-Myc; assay: Western blotting of c-Myc in HT-29 cells; assay type: cell-based, human; conditions: 10 µM, 48 hs
Description: as §9, §10, §2

[13] = read-out: Proliferation IC50, HT-29 cells, concentration range 1 to 25 µM
[14] = Homo sapiens, HT-29, read-out: Proliferation IC50

| SMILES | Efficacy [1] | EC50 [1] [µM] | Residual viability ([2]; HT-29 cells) [%] | IC50 [2, 13] [µM] | cyclin D1 protein level [3] | Apoptosis induction [4] | IC50 [2, 14] [µM] | p21waf1/cip1 protein expression [5] | Luciferase activity remaining on co-treatment with LiCl [7] | also measured |
| --- | --- | --- | --- | --- | --- | --- | --- | --- | --- | --- |
| O=C(O)C(CCCc1ccccc1)Oc1ccc(Cl)cc1 (racemic) [(R,S)-2] | 48 ± 2.1% | 0.54 ± 0.1 | 70 ± 2.5 | 12.1 ± 1.2 | – | – | – | – | – | – |
| O=C(O)C(CCCCc1ccccc1)Oc1ccc(Cl)cc1 (racemic) [(R,S)-4] | 60 ± 1.1% | 0.35 ± 0.07 | 60 ± 0.5 | 10.1 ± 0.4 | – | – | – | – | – | – |
| O=C(O)[C@@H](CCc1ccccc1)Oc1ccc(Cl)cc1 [(R)-1] | 45 ± 1.3% | 0.64 ± 0.06 | 77 ± 3.1 | 19.7 ± 1.7 | – | – | – | – | – | – |
| O=C(O)[C@H](CCCc1ccc(Cl)cc1)Oc1ccc(Cl)cc1 [(S)-3] | 55% and 55 ± 1.2% | 0.4 ± 0.05 | 31 ± 1.3 | – | reduction more evident | stimulated apoptosis | 4.8 ± 0.35 | robust increase | about 60% | p21waf1/cip1 expression [6]: no p21^waf1/cip1 variations; Cell cycle changes [8]: significant increase of cells in the sub G0/G1 phase; p21waf1/cip1 expression ([9]; RKO clone expressing exogenous PPARγ1, 10 µM, 48 hs): induced accumulation; β-catenin protein level [10]: reduction; Caspase 3 activation (precursor reduced, cleaved form increased) [11]: strongest effect; c-Myc protein level [12]: reduction |
| O=C(Nc1ccccc1)c1cc([N+](=O)[O-])ccc1Cl [GW9662, reference compound] | – | – | – | – | – | – | – | – | – | Effect of the antagonist on compound-induced p21waf1/cip1 accumulation ([9]; RKO clone expressing PPARγ1, co-treatment with (R,S)-3, (S)-3 or (R,S)-7): reverted the effect |
| CN(CCOc1ccc(CC2SC(=O)NC2=O)cc1)c1ccccn1 (centres unmarked) [RGZ, rosiglitazone, reference compound] | – | – | – | – | reduction | stimulated apoptosis | 9.8 ± 0.4 | slight | 80% | – |
